In patent publication US20060281722A1, “Compounds and uses thereof” (priority 2005, published 2006):

System: Tumor Necrosis Factor alpha (TNFα)
Assay: Lipopolysaccharide (LPS)-induced serum TNFα in rats (oral dosing 2 h before LPS, serum ELISA)
Assay type: in vivo
Set-up: unit not given here
Conditions: LPS 0.01 mg/Kg intraperitoneal, male Lewis rats
Method: The purpose of this study was to examine the ability of compound 1 to suppress lipopolysaccharide (LPS)-induced Tumor Necrosis Factor alpha (TNFα) levels when administered to male Lewis rats.
Compound 1 was added directly to 100% ethanol. The suspension was vortexed vigorously until all of compound 1 was completely dissolved or fully suspended. The solution was made up to volume in 0.5% methylcellulose. The final concentration of ethanol was 10%.
At time minus 2 hours, rats were administered the appropriate amount of prednisolone and/or compound 1 via oral gavage in a dose volume of 0.25 mL. Untreated control and LPS Control animals received 0.25 mL of the vehicle only.
LPS was prepared at a 100X concentration by resuspension in Phosphate Buffered Saline (PBS). The LPS solution was vortexed vigorously to ensure complete suspension of the LPS. Immediately prior to injection, the LPS was serial diluted in PBS to a 1× working solution.
At time 0, animals were injected via the intraperitoneal route with 1.0 mL of the 1×LPS working solution (final LPS dose is 0.01 mg/Kg body weight) using a 25 gauge needle. Vehicle control animals received 1 mL of PBS.
Blood was expelled into a serum separator tube containing Clot Activator (Becton Dickinson, Franklin Lakes, N.J.). Samples were allowed to sit at room temperature for 30 min prior to spinning at 2000 rpm for 10 min in a bench top centrifuge at room temperature. Serum was transferred to an Eppendorf tube and immediately assayed for TNFα or stored at −80° C. until assayed.
Serum samples were assayed using the BioSource Rat TNFα ELISA kit according to the manufacturer's instructions.
Evaluation of the results included statistical analysis of differences in serum TNFα between treatment and control groups. Group means were compared using a one-way ANOVA. If the ANOVA was significant, p≦0.05, a multiple comparison test (Tukey-Kramer) was used to determine which groups were different.

Compound	Serum TNFα ± Standard Error (0.3 mg/kg compound 1, oral gavage at minus 2 hours)	Serum TNFα ± Standard Error (1 mg/kg compound 1, oral gavage at minus 2 hours)	Serum TNFα ± Standard Error (3 mg/kg compound 1, oral gavage at minus 2 hours)	Serum TNFα ± Standard Error (0.3 mg/kg prednisolone, oral gavage at minus 2 hours)	Serum TNFα ± Standard Error (10 mg/kg prednisolone, oral gavage at minus 2 hours)
Clc1ccc2c(c1)C(N1CCN(CCN3CCOCC3)CC1)=Nc1ccccc1O2 [compound1]	13675.6 ± 7606.9	12769.1 ± 5231.2	12980.4 ± 6788.4		
C[C@]12C=CC(=O)C=C1CC[C@@H]1[C@@H]2[C@@H](O)C[C@@]2(C)[C@H]1CC[C@]2(O)C(=O)CO [prednisolone, reference compound]				11375.9 ± 5238.4	6239.3 ± 5020.4
